Assay [1] has as its system Jurkat NFκB-luciferase cells. The assay is described as follows: Jurkat NFκB-Luciferase Assay.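 Also: bioluminescence read-out normalized to DMSO basal activation and to maximum enhancement at 1 µM compound, rising signal indicating stronger T-cell activation through DGKα inhibition.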 The conditions noted are these: Homo sapiens; Jurkat NFκB-luciferase cells activated with anti-CD3 antibody (OKT3), 2.5 hrs at 37° C., One-Glo Ex; geometric mean; read-out: DGK NFKb Luciferase EC50. In kind it is cell-based.
Another assay addresses T1, human DGKα (Homo sapiens, UniProt P23743).
T1 construct: purchased Carna Biosciences'; inferred from the same paragraph's 'obtained from Carna Biosciences')
The assay is described as follows: DGKα Biochemical Activity Assay (ADP-Glo).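 Also: recombinant enzyme converting diacylglycerol in lipid micelles with ATP, ADP formed detected by luminescence, IC50 from a four-parameter nonlinear fit, geometric mean across experiments.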

For orientation: EC50 means the concentration giving half of the maximal effect. A word on the IC50: it is the midpoint of a concentration-inhibition curve. High values mean lower potency, low ones higher potency.

The structures appear in SMILES notation.

T1 sequence (P23743 whole entry): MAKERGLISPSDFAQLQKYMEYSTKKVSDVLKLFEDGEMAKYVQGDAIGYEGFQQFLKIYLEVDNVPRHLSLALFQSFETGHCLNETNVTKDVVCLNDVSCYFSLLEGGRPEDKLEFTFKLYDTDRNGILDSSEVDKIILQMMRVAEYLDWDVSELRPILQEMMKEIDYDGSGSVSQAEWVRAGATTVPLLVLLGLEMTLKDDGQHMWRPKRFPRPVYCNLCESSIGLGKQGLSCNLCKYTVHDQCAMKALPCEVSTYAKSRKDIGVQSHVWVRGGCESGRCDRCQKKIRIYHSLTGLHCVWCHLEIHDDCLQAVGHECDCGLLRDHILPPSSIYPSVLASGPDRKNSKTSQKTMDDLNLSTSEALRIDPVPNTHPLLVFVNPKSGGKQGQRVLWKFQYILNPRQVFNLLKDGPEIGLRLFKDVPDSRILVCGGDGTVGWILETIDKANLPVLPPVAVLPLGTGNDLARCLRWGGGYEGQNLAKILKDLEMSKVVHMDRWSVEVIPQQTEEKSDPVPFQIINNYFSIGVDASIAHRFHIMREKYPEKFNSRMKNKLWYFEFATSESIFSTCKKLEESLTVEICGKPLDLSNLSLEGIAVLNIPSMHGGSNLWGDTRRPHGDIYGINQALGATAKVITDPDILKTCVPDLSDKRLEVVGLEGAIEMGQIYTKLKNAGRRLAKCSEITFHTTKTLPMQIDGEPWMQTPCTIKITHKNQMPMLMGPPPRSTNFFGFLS

As for `[2H]C([2H])([2H])n1c(=O)nc(N2CCCc3c(C#CC4(C(F)(F)F)CC4)cncc32)c2c(F)c(F)ccc21` [Example 160, 5,6-difluoro-1-(methyl-d3)-4-(5-((1-(trifluoromethyl)cyclopropyl)ethynyl)-3,4-dihydro-1,7-naphthyridin-1(2H)-yl)quinazolin-2(1H)-one], the concentration for a half-maximal effect (EC50) in assay [1] worked out at 0.936 nM. Moreover, the midpoint of inhibition at human DGKα, the IC50, lay at 5.36 nM.
For the molecule `[2H]C([2H])([2H])n1c(=O)nc(N2CCCc3c(C#CC4CCCN4C)cccc32)c2c(F)cccc21` (stereo not drawn) [Example 161, 5-fluoro-4-[5-[2-(1-methylpyrrolidin-2-yl)ethynyl]-3,4-dihydro-2H-quinolin-1-yl]-1-(trideuteriomethyl)quinazolin-2-one], the EC50 in assay [1] was 2.8 nM. The same molecule came in with an IC50 at human DGKα of 16.7 nM.
On to `[2H]C([2H])([2H])n1c(=O)nc(N2CCCc3c(C#CC4CCCN4CC(F)F)cccc32)c2c(F)cccc21` (stereo not drawn) [Example 162, 4-[5-[2-[1-(2,2-difluoroethyl)pyrrolidin-2-yl]ethynyl]-3,4-dihydro-2H-quinolin-1-yl]-5-fluoro-1-(trideuteriomethyl)quinazolin-2-one], for which the concentration for a half-maximal effect (EC50) in assay [1] came out at 1.26 nM. The half-maximal inhibitory concentration (IC50) against human DGKα was found to be 9.27 nM.
Turning to `O=c1nc(N2CCCCc3c(Br)cncc32)c2cc(F)ccc2[nH]1` [Example 163, 4-(6-bromo-2,3,4,5-tetrahydro-1H-pyrido[3,4-b]azepin-1-yl)-6-fluoroquinazolin-2(1H)-one], the concentration for a half-maximal effect (EC50) in assay [1] was 8.9 nM. On human DGKα, this molecule returned an IC50 of 48.7 nM.
As to `CC1(C#Cc2cncc3c2CCCCN3c2nc(=O)[nH]c3ccc(F)cc23)CC1` [Example 164, 6-fluoro-4-(6-((1-methylcyclopropyl)ethynyl)-2,3,4,5-tetrahydro-1H-pyrido[3,4-b]azepin-1-yl)quinazolin-2(1H)-one], the EC50 in assay [1] was 0.693 nM. In addition, 5.58 nM corresponded to half-maximal inhibition against human DGKα (IC50).
In the same order, the values of `O=c1nc(N2CCCCc3c(C#CC4(C(F)(F)F)CC4)cncc32)c2cc(F)ccc2[nH]1` [Example 165, 6-fluoro-4-(6-((1-(trifluoromethyl)cyclopropyl)ethynyl)-2,3,4,5-tetrahydro-1H-pyrido[3,4-b]azepin-1-yl)quinazolin-2(1H)-one] are 0.635 nM and 12.2 nM.
For the molecule `[2H]C([2H])([2H])n1c(=O)nc(N2CCCc3c(C#CC4CCN(C)C4)cccc32)c2c(F)cccc21` (stereo not drawn) [Example 166, 5-fluoro-4-[5-[2-(1-methylpyrrolidin-3-yl)ethynyl]-3,4-dihydro-2H-quinolin-1-yl]-1-(trideuteriomethyl)quinazolin-2-one], the EC50 in assay [1] was determined as 6.71 nM. Also, the IC50 against human DGKα was 71.5 nM.
In the same order, the values of `[2H]C([2H])([2H])n1c(=O)nc(N2CCOCc3c(C#CC4CCCN4C)cccc32)c2c(F)cccc21` (stereo not drawn) [Example 167, 5-fluoro-4-[6-[2-(1-methylpyrrolidin-2-yl)ethynyl]-3,5-dihydro-2H-4,1-benzoxazepin-1-yl]-1-(trideuteriomethyl)quinazolin-2-one] are 11 nM and 18.5 nM.
As to `[2H]C([2H])([2H])n1c(=O)nc(N2CCOCc3c(C#CC4CCCN4CC(F)F)cccc32)c2c(F)cccc21` (stereo not drawn) [Example 168, 4-[6-[2-[1-(2,2-difluoroethyl)pyrrolidin-2-yl]ethynyl]-3,5-dihydro-2H-4,1-benzoxazepin-1-yl]-5-fluoro-1-(trideuteriomethyl)quinazolin-2-one], the EC50 in assay [1] stood at 1.55 nM. The IC50 against human DGKα stood at 5.33 nM.
Regarding `[2H]C([2H])([2H])n1c(=O)nc(N2CCOCc3c(C#CC4CCCN4C(=O)C4CC4)cccc32)c2c(F)cccc21` (stereo not drawn) [Example 169, 4-[6-[2-[1-(cyclopropanecarbonyl)pyrrolidin-2-yl]ethynyl]-3,5-dihydro-2H-4,1-benzoxazepin-1-yl]-5-fluoro-1-(trideuteriomethyl)quinazolin-2-one], the 50% effective concentration (EC50) in assay [1] was determined as 12.8 nM. Further, half-maximal inhibition against human DGKα (IC50) was put at 9.06 nM.
In the case of `[2H]C([2H])([2H])n1c(=O)nc(N2CCOCc3c(C#CC4(C(F)(F)F)CCN(C)C4)cccc32)c2c(F)cccc21` (stereo not drawn) [Example 170, 5-fluoro-4-[6-[2-[1-methyl-3-(trifluoromethyl)pyrrolidin-3-yl]ethynyl]-3,5-dihydro-2H-4,1-benzoxazepin-1-yl]-1-(trideuteriomethyl)quinazolin-2-one], the half-maximal effective concentration (EC50) in assay [1] worked out at 3.75 nM. The molecule further showed an IC50 at human DGKα of 25.7 nM.
On to `[2H]C([2H])([2H])n1c(=O)nc(N2CCOCc3c(C#CC4(C(F)(F)F)CCN(C5COC5)C4)cccc32)c2c(F)cccc21` (stereo not drawn) [Example 171, 5-fluoro-4-[6-[2-[1-(oxetan-3-yl)-3-(trifluoromethyl)pyrrolidin-3-yl]ethynyl]-3,5-dihydro-2H-4,1-benzoxazepin-1-yl]-1-(trideuteriomethyl)quinazolin-2-one], for which, in assay [1], the concentration for a half-maximal effect (EC50) was 4.99 nM. For the same molecule, the 50% inhibitory concentration (IC50) against human DGKα is 11.4 nM.
Turning to `[2H]C([2H])([2H])n1c(=O)nc(N2CCOCc3c(C#CC4(C(F)(F)F)CCN(CC(F)F)C4)cccc32)c2c(F)cccc21` (stereo not drawn) [Example 172, 4-[6-[2-[1-(2,2-difluoroethyl)-3-(trifluoromethyl)pyrrolidin-3-yl]ethynyl]-3,5-dihydro-2H-4,1-benzoxazepin-1-yl]-5-fluoro-1-(trideuteriomethyl)quinazolin-2-one], the half-maximal effective concentration (EC50) in assay [1] turned out to be 1.4 nM. At human DGKα, this molecule showed a half-inhibitory concentration (IC50) of 8.07 nM.
As for `[2H]C([2H])([2H])n1c(=O)nc(N2CCOCc3c(C#CC45CC(CN4CC(F)F)C5)cccc32)c2c(F)cccc21` [Example 173, 4-[6-[2-[2-(2,2-difluoroethyl)-2-azabicyclo[2.1.1]hexan-1-yl]ethynyl]-3,5-dihydro-2H-4,1-benzoxazepin-1-yl]-5-fluoro-1-(trideuteriomethyl)quinazolin-2-one], the half-maximal effective concentration (EC50) in assay [1] amounted to 0.401 nM. In addition, 0.731 nM corresponded to half-maximal inhibition at human DGKα (IC50).
Regarding `[2H]C([2H])([2H])n1c(=O)nc(N2CCOCc3c(C#CC45CC(CN4C)C5)cccc32)c2c(F)cccc21` [Example 174, 5-fluoro-4-[6-[2-(2-methyl-2-azabicyclo[2.1.1]hexan-1-yl)ethynyl]-3,5-dihydro-2H-4,1-benzoxazepin-1-yl]-1-(trideuteriomethyl)quinazolin-2-one], the EC50 in assay [1] amounted to 32.9 nM. The molecule also displayed an IC50 at human DGKα of 66.4 nM.
Take `[2H]C([2H])([2H])n1c(=O)nc(N2CCOCc3c(C#CC(C)(C)N)cccc32)c2c(F)cccc21` [Example 175, 4-(6-(3-amino-3-methylbut-1-yn-1-yl)-2,3-dihydrobenzo[e][1,4]oxazepin-1(5H)-yl)-5-fluoro-1-(methyl-d3)quinazolin-2(1H)-one]: in assay [1], the EC50 worked out at 21.3 nM. The molecule further yielded an IC50 at human DGKα of 122 nM.
With `[2H]C([2H])([2H])n1c(=O)nc(N2CCOCc3c(C#CC(C)(C)NC(=O)C4(C(F)(F)F)CC4)cccc32)c2c(F)cccc21` [Example 176, N-(4-(1-(5-fluoro-1-(methyl-d3)-2-oxo-1,2-dihydroquinazolin-4-yl)-1,2,3,5-tetrahydrobenzo[e][1,4]oxazepin-6-yl)-2-methylbut-3-yn-2-yl)-1-(trifluoromethyl)cyclopropane-1-carboxamide], the concentration giving a half-maximal response (EC50) in assay [1] is 5.36 nM. This molecule also had an IC50 against human DGKα of 2.4 nM.
Turning to `[2H]C([2H])([2H])n1c(=O)nc(N2CCOCc3c(C#Cc4coc(C)n4)cccc32)c2c(F)cccc21` [Example 177, 5-fluoro-1-(methyl-d3)-4-(6-((2-methyloxazol-4-yl)ethynyl)-2,3-dihydrobenzo[e][1,4]oxazepin-1(5H)-yl)quinazolin-2(1H)-one], in assay [1], the EC50 stood at 18.8 nM. The IC50 at human DGKα worked out at 17.5 nM.
With `[2H]C([2H])([2H])n1c(=O)nc(N2CCOCc3c(C#CC(C)(C)NC(=O)C4(C(F)F)CC4)cccc32)c2c(F)cccc21` [Example 178, 1-(difluoromethyl)-N-(4-(1-(5-fluoro-1-(methyl-d3)-2-oxo-1,2-dihydroquinazolin-4-yl)-1,2,3,5-tetrahydrobenzo[e][1,4]oxazepin-6-yl)-2-methylbut-3-yn-2-yl)cyclopropane-1-carboxamide], the EC50 in assay [1] worked out at 9.33 nM. The midpoint of inhibition against human DGKα, the IC50, lay at 6.36 nM.
As to `[2H]C([2H])([2H])n1c(=O)nc(N2CCOCc3c(C#CC(C)(C)NC(=O)C(C)(C)C(F)F)cccc32)c2c(F)cccc21` [Example 179, 3,3-difluoro-N-(4-(1-(5-fluoro-1-(methyl-d3)-2-oxo-1,2-dihydroquinazolin-4-yl)-1,2,3,5-tetrahydrobenzo[e][1,4]oxazepin-6-yl)-2-methylbut-3-yn-2-yl)-2,2-dimethylpropanamide], in assay [1], the EC50 was 15.1 nM. At human DGKα, inhibition was half-maximal at 3.48 nM (IC50).
Consider `[2H]C([2H])([2H])n1c(=O)nc(N2CCOCc3c(C#CC(C)(C)NC(=O)C4(C(C)(F)F)CC4)cccc32)c2c(F)cccc21` [Example 180, 1-(1,1-difluoroethyl)-N-(4-(1-(5-fluoro-1-(methyl-d3)-2-oxo-1,2-dihydroquinazolin-4-yl)-1,2,3,5-tetrahydrobenzo[e][1,4]oxazepin-6-yl)-2-methylbut-3-yn-2-yl)cyclopropane-1-carboxamide], for which the EC50 in assay [1] came out at 7.56 nM. On human DGKα, this molecule displayed a half-inhibitory concentration (IC50) of 4.63 nM.

(Values after patent US11932634B2 (Gilead Sciences, Inc., priority 2021, dated 2024).)
